Data taken from PubChem BioAssay AID2060496 (Molecular Pharmacology Branch, DTP, NCI, 2025).
“And” between values parts separate entries of the source, which are not always exact repeats. Equal entries are not always repeated.

Tested on: 276233-004-R-J1-PDC complex spheroid viability
Assay: Anticancer human tumor 276233-004-R-J1-PDC patient-derived colon adenocarcinoma cell line growth inhibition [GQUAD]
Details: for viability, T/C: stronger effect = lower value; active = viability on the fitted dose curve at most 10% of control; inactive = the rest
Description: DNA G-quadruplex Stabilizer Agents in Combinations in Complex Spheroids
A high-throughput screen of multi-cell type tumor spheroids was designed to identify active combinations of DNA G-quadruplex stabilizer agents and targeted small molecules. Complex spheroids include a stromal component modeled by human endothelial cells (HUVEC) and fibroblasts modeled by human mesenchymal stem cells (MSCs). The concentration ranges selected for each drug and investigational agent were based upon clinically achievable concentrations if the clinical Cmax of the agent was known.
Compounds. The drugs and investigational agents: pidnarulex (CX-5461; NSC782164), APTO-253 (NSC789042), BRACO-19 (NSC847499), peposertib (NSC802822), ceralasertib (NSC780249), elimusertib (NSC800525), camonsertib (NSC841442), AZD-1390 (NSC803789), olaparib (NSC753686), talazoparib (NSC767125), ART-558 (NSC835418), sotorasib (NSC818433), MRTX-1133 (NSC836407), SN-38 (NSC673596), topotecan (NSC609699), etoposide (NSC141540), doxorubicin (NSC123127), gemcitabine (NSC613327), 5-fluorouracil (NSC19893), paclitaxel (NSC125973), vemurafenib (NSC761431), panobinostat (NSC761190), R-306465 (JNJ-16241199; NSC773264), adavosertib (NSC754352), TP-3654 (NSC805149), carboplatin (NSC241240), KSQ-4279 (NSC840948), and staurosporine (NSC755774) were obtained from the National Cancer Institute (NCI) Developmental Therapeutics Program Chemical Repository (34). The FDA-approved anticancer drug set is available from the NCI Developmental Therapeutics Program. […] The stock solutions were prepared in dimethyl sulfoxide (DMSO, Sigma-Aldrich, St. Louis, MO, cat. D2650) at 800-fold the tested concentration and stored at -70 degrees C prior to their use. All drugs and investigational agents were tested over a range starting from a high concentration at or near the clinical Cmax and decreasing in half-log increments. If the clinical Cmax for an agent had not been determined, the highest concentration tested was 10 microM.
2.3 Cell Culture. All cells were maintained in an incubator at 37 degrees C and 5% CO2 with 95% humidity. The PDC lines were cultured according to standard operating procedures established by the NCI PDMR. All PDCs were thawed and cultured in Matrigel-coated flasks prepared with a working solution of 1X Ham's F-12 nutrient mix, without supplementation (Invitrogen, cat. 11765054), 100 U/mL penicillin-streptomycin (Invitrogen, cat. 15140122), and 2.5% Matrigel (Corning Inc., cat. 354248) for the first three passages. The 857933-349-R-J2-PDC line was cultured in 6C/Colon 1B media, which includes advanced DMEM/F-12 (Thermo Fisher Scientific, cat. 12634028), 10 mM HEPES (Thermo Fisher Scientific, cat. 15630080), 1X GlutaMAX supplement (Thermo Fisher Scientific, cat. 35050061), 0.1 mg/mL primocin (InvivoGen, cat. ant-pm-2), 10% defined fetal bovine serum, heat inactivated (HyClone Laboratories Inc., cat. SH30070.03HI), 50% L-WRN conditioned media (ATCC, cat. CRL-3276), 1.25 mM N-Acetyl-L-cysteine (Sigma-Aldrich, cat. A9165), 10 mM nicotinamide (Sigma-Aldrich, cat. N0636), 1X B-27 supplement (Thermo Fisher Scientific, cat. 17504044), 1X N-2 supplement (Thermo Fisher Scientific, cat. 17502048), 10 microM Y-27632 dihydrochloride (Tocris Bioscience, cat. 1254), and 50 ng/mL human EGF recombinant protein (Thermo Fisher Scientific, cat. PHG0311). The 485176-168-R4-J1-PDC line was cultured in Panc media, which includes all 6C/Colon 1B media components plus 100 ng/mL human FGF-10 (Thermo Fisher Scientific, cat. 100-26), 500 nM SB-431542 (Selleckchem, cat. S1067), and gastrin (Tocris, cat. 3006).
[…]

[1] = curve of first compound, second compound 0.0316 µM
[2] = curve of first compound, second compound 0.1 µM
[3] = curve of first compound, second compound 0.316 µM
[4] = curve of first compound, second compound 1 µM
[5] = curve of first compound, second compound 3.16 µM
[6] = curve of first compound, second compound 10 µM
[7] = second compound 0.0316 µM, first compound 0.000999 µM
[8] = second compound 0.0316 µM, first compound 0.00316 µM
[9] = second compound 0.0316 µM, first compound 0.00999 µM
[10] = second compound 0.0316 µM, first compound 0.0316 µM
[11] = second compound 0.0316 µM, first compound 0.0999 µM
[12] = second compound 0.0316 µM, first compound 0.316 µM
[13] = second compound 0.1 µM, first compound 0.000999 µM
[14] = second compound 0.1 µM, first compound 0.00316 µM
[15] = second compound 0.1 µM, first compound 0.00999 µM
[16] = second compound 0.1 µM, first compound 0.0316 µM
[17] = second compound 0.1 µM, first compound 0.0999 µM
[18] = second compound 0.1 µM, first compound 0.316 µM
[19] = second compound 0.316 µM, first compound 0.000999 µM
[20] = second compound 0.316 µM, first compound 0.00316 µM
[21] = second compound 0.316 µM, first compound 0.00999 µM
[22] = second compound 0.316 µM, first compound 0.0316 µM
[23] = second compound 0.316 µM, first compound 0.0999 µM
[24] = second compound 0.316 µM, first compound 0.316 µM
[25] = second compound 1 µM, first compound 0.000999 µM
[26] = second compound 1 µM, first compound 0.00316 µM
[27] = second compound 1 µM, first compound 0.00999 µM
[28] = second compound 1 µM, first compound 0.0316 µM
[29] = second compound 1 µM, first compound 0.0999 µM
[30] = second compound 1 µM, first compound 0.316 µM
[31] = second compound 3.16 µM, first compound 0.000999 µM
[32] = second compound 3.16 µM, first compound 0.00316 µM
[33] = second compound 3.16 µM, first compound 0.00999 µM
[34] = second compound 3.16 µM, first compound 0.0316 µM
[35] = second compound 3.16 µM, first compound 0.0999 µM
[36] = second compound 3.16 µM, first compound 0.316 µM
[37] = second compound 10 µM, first compound 0.000999 µM
[38] = second compound 10 µM, first compound 0.00316 µM
[39] = second compound 10 µM, first compound 0.00999 µM
[40] = second compound 10 µM, first compound 0.0316 µM
[41] = second compound 10 µM, first compound 0.0999 µM
[42] = second compound 10 µM, first compound 0.316 µM
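Also: spheroids exposed to drugs for seven days.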

CC[C@@]1(O)C(=O)OCc2c1cc1n(c2=O)Cc2cc3c(CN(C)C)c(O)ccc3nc2-1 + Cc1cnc(CNC(=O)c2c(=O)c3ccc(N4CCCN(C)CC4)nc3n3c2sc2ccccc23)cn1
inactive: viability, T/C [7] 88.1% | viability, T/C [8] 94.5% | viability, T/C [9] 87.9% | viability, T/C [10] 80% | viability, T/C [11] 98.7% | viability, T/C [12] 82.5% | viability, T/C [13] 93.3% | viability, T/C [14] 101% | viability, T/C [15] 107% | viability, T/C [16] 83.7% | viability, T/C [17] 87% | viability, T/C [18] 76% | viability, T/C [19] 83.9% | viability, T/C [20] 90.8% | viability, T/C [21] 106% | viability, T/C [22] 84.4% | viability, T/C [23] 87.7% | viability, T/C [24] 92.7% | viability, T/C [25] 81% | viability, T/C [26] 93.9% | viability, T/C [27] 87.1% | viability, T/C [28] 80.5% | viability, T/C [29] 88.2% | viability, T/C [30] 107% | viability, T/C [31] 81.9% | viability, T/C [32] 84% | viability, T/C [33] 80.6% | viability, T/C [34] 87.2% | viability, T/C [35] 82.3% | viability, T/C [36] 80.8% | viability, T/C [37] 73.2% | viability, T/C [38] 67.9% | viability, T/C [39] 70.2% | viability, T/C [40] 83.6% | viability, T/C [41] 70% | viability, T/C [42] 89.6%
> 316 nM: IC50 [1] | IC50 [2] | IC50 [3] | IC50 [4] | IC50 [5] | IC50 [6]

CC(=O)O[C@H]1C(=O)[C@@]2(C)[C@H]([C@H](OC(=O)c3ccccc3)[C@]3(O)C[C@H](OC(=O)[C@H](O)[C@@H](NC(=O)c4ccccc4)c4ccccc4)C(C)=C1C3(C)C)[C@]1(OC(C)=O)CO[C@@H]1C[C@@H]2O
> 10000 nM: IC50 (curve of compound)
inactive: viability, T/C (compound 0.0316 µM) 84.1% and 80.2% and 104% | viability, T/C (compound 0.1 µM) 96.1% and 82.8% and 71.2% | viability, T/C (compound 0.316 µM) 82.9% and 80.8% and 85.8% | viability, T/C (compound 1 µM) 87.2% and 95.1% and 88.6% | viability, T/C (compound 3.16 µM) 99.2% and 101% and 86.8% | viability, T/C (compound 10 µM) 76.9% and 80.1% and 86.2%

Cc1[nH]c2ccccc2c1CCNCc1ccc(/C=C/C(=O)NO)cc1 + Cc1[nH]c2ccc(F)cc2c1-c1nc2c3cccnc3c3ncccc3c2[nH]1
inactive: viability, T/C [7] 82.7% | viability, T/C [8] 100% | viability, T/C [9] 82.1% | viability, T/C [10] 96% | viability, T/C [11] 50.5% | viability, T/C [12] 13.1% | viability, T/C [13] 76.9% | viability, T/C [14] 84.2% | viability, T/C [15] 62.8% | viability, T/C [16] 68% | viability, T/C [17] 43.9% | viability, T/C [18] 10.9% | viability, T/C [19] 64.2% | viability, T/C [20] 62.3% | viability, T/C [21] 46.5% | viability, T/C [22] 64% | viability, T/C [23] 26.4% | viability, T/C [24] 32.4% | viability, T/C [25] 58.9% | viability, T/C [26] 44.6% | viability, T/C [27] 65.7% | viability, T/C [28] 50.8% | viability, T/C [29] 37.1% | viability, T/C [31] 18.3% | viability, T/C [32] 15.9% | viability, T/C [33] 21.4% | viability, T/C [34] 13.6% | viability, T/C [37] 35.8% | viability, T/C [38] 45.9% | viability, T/C [39] 36.5% | viability, T/C [40] 39.7% | viability, T/C [41] 35.3% | viability, T/C [42] 17.5%
72.1 nM: IC50 [2]
39 nM: IC50 [4]
102 nM: IC50 [1]
< 0.999 nM: IC50 [5] | IC50 [6]
45.2 nM: IC50 [3]
active: viability, T/C [30] 7.17% | viability, T/C [35] 7.05% | viability, T/C [36] 6.05%
